Assay results: paper PMC5830615 (Scientific Reports, 2018)

How the values were obtained:
human GLP-1R = test: FRET cAMP assay in HEK293-GLP-1R cells (stable human GLP-1R) virally transduced with H188; assay type: cell-based; settings: HEK293-GLP-1R cells transduced with H188
Procedure: (§1) HEK293-H188-C24 cells stably expressing H188 were plated at 80% confluence on 96-well clear-bottom assay plates (Costar 3904, Corning, NY) coated with rat tail collagen (Collaborative Biomedical Products, Bedford, MA). HEK293 cells stably expressing select GPCRs were transduced for 16 hours with H188 virus at a density of ca. 60,000 cells/well under conditions in which the multiplicity of infection (m.o.i.) was equivalent to 25 viral particles per cell. For all assays, the culture media was then removed and replaced by 200 μl/well of a standard extracellular saline (SES) solution supplemented with 11 mM glucose and 0.1% BSA[31],[34]–[36]. The composition of the SES was (in mM): 138 NaCl, 5.6 KCl, 2.6 CaCl2, 1.2 MgCl2, 11.1 glucose, and 10 Hepes (295 mOsmol, pH 7.4). Real-time kinetic assays of FRET were performed using a FlexStation 3 microplate reader equipped with monochromators (Molecular Devices, Sunnyvale, CA). Excitation light was delivered at 435/9 nm (455 nm cut-off), and emitted light was detected at 485/15 nm (CFP) or 535/15 nm (YFP)[31],[34]–[36]. The emission intensities were the averages of 12 excitation flashes for each time point per well.

[1] = test system: soluble adenylyl cyclase (sAC); test: FRET assay of soluble adenylyl cyclase activity in HEK293-sAC cells transduced with H188; assay type: cell-based
Procedure: These actions of Rp-8-Br-cAMPS-pAB were not reproduced by the negative control 4-acetoxybenzy alcohol (4-Abn-OH) that lacks the cAMP moiety (Fig. 3e1,e2)[36].
HEK293-H188-C24 cells stably expressing H188 were plated at 80% confluence on 96-well clear-bottom assay plates (Costar 3904, Corning, NY) coated with rat tail collagen (Collaborative Biomedical Products, Bedford, MA). HEK293 cells stably expressing select GPCRs were transduced for 16 hours with H188 virus at a density of ca. 60,000 cells/well under conditions in which the multiplicity of infection (m.o.i.) was equivalent to 25 viral particles per cell. For all assays, the culture media was then removed and replaced by 200 μl/well of a standard extracellular saline (SES) solution supplemented with 11 mM glucose and 0.1% BSA[31],[34]–[36]. The composition of the SES was (in mM): 138 NaCl, 5.6 KCl, 2.6 CaCl2, 1.2 MgCl2, 11.1 glucose, and 10 Hepes (295 mOsmol, pH 7.4). Real-time kinetic assays of FRET were performed using a FlexStation 3 microplate reader equipped with monochromators (Molecular Devices, Sunnyvale, CA). Excitation light was delivered at 435/9 nm (455 nm cut-off), and emitted light was detected at 485/15 nm (CFP) or 535/15 nm (YFP)[31],[34]–[36]. […] The 485/535 emission ratio was calculated for each well and the mean +/− s.d. values for 12 wells were averaged. […]

wild-type HEK293 cells = test: FRET cAMP assay in wild-type HEK293 cells transduced with H188 (negative control); assay type: cell-based, human; settings: WT HEK293 lacking recombinant receptors, H188 virus; IBMX at 50 μM
Procedure: as §1

[2] = test system: H188 (Epac1-based cAMP biosensor); test: FRET response of biosensor H188 to cAMP analogs and Epac inhibitors in HEK293-H188-C24 cells; assay type: cell-based
Text: (§2) H188 contains the cAMP sensor Epac1 in which the full-length protein is truncated to remove the Disheveled, Egl-10, and Pleckstrin (DEP) membrane-targeting domain so that its expression is confined largely to the cytoplasm (Fig. 2a,b)[30]. T781A and F782A mutations introduced within the CDC25 homology domain disrupt guanine nucleotide exchange factor (GEF) activity so that binding of cAMP to H188 is not linked to downstream signaling events mediated by the Epac1 effector protein Rap1 GTPase (Fig. 2a)[30]. In H188 the Epac1 backbone is flanked by an mTurquoise2Δ FRET donor chromophore at the N-terminus, and tandem cp173 Venus-Venus FRET acceptor chromophores at the C-terminus (Fig. 2a). Binding of cAMP reduces FRET so that when exciting with 440 nm light, there is an increase of 485 nm (mTuquoise2Δ) and a decrease of 535 nm (cp173 Venus-Venus) emission fluorescence. This ΔFRET is measured as an increase of the 485/535 nm FRET ratio.
HEK293-H188-C24 cells stably expressing H188 were plated at 80% confluence on 96-well clear-bottom assay plates (Costar 3904, Corning, NY) coated with rat tail collagen (Collaborative Biomedical Products, Bedford, MA). HEK293 cells stably expressing select GPCRs were transduced for 16 hours with H188 virus at a density of ca. 60,000 cells/well under conditions in which the multiplicity of infection (m.o.i.) was equivalent to 25 viral particles per cell. For all assays, the culture media was then removed and replaced by 200 μl/well of a standard extracellular saline (SES) solution supplemented with 11 mM glucose and 0.1% BSA[31],[34]–[36]. The composition of the SES was (in mM): 138 NaCl, 5.6 KCl, 2.6 CaCl2, 1.2 MgCl2, 11.1 glucose, and 10 Hepes (295 mOsmol, pH 7.4). Real-time kinetic assays of FRET were performed using a FlexStation 3 microplate reader equipped with monochromators (Molecular Devices, Sunnyvale, CA). Excitation light was delivered at 435/9 nm (455 nm cut-off), and emitted light was detected at 485/15 nm (CFP) or 535/15 nm (YFP)[31],[34]–[36]. The emission intensities were the averages of 12 excitation flashes for each time point per well. Test solutions dissolved in SES were placed in V-bottom 96-well plates (Greiner Bio-One, Monroe, NC), and an automated pipetting procedure was used to transfer 50 μl of each test solution to each well of the assay plate containing monolayers of these cells. The 485/535 emission ratio was calculated for each well and the mean +/− s.d. values for 12 wells were averaged. To facilitate comparisons amongst different experiments, these FRET ratio values were normalized using baseline subtraction so that a y-axis value of 1 corresponds to the initial baseline FRET ratio, whereas a value of 2 corresponds to a doubling of the FRET ratio. The time course of the ΔFRET ratio was plotted after exporting data to Origin 8.0 (OriginLab, Northampton, MA). Origin 8.0 was also used for generation of Hill plots describing dose-response relationships.

[3] = test system: HEK293-H188-C24 cells (cAMP production); test: High-throughput FRET assay of cAMP, forskolin in HEK293-H188-C24 cells; assay type: cell-based; settings: Homo sapiens; HEK293-H188-C24 monolayers, 96-well microplate reader, 485/535 nm FRET ratio; read-out: EC50 of forskolin for H188 ΔFRET (sensitivity)
Text: as §2
HEK293-H188-C24 cells stably expressing H188 were plated at 80% confluence on 96-well clear-bottom assay plates (Costar 3904, Corning, NY) coated with rat tail collagen (Collaborative Biomedical Products, Bedford, MA). […] Real-time kinetic assays of FRET were performed using a FlexStation 3 microplate reader equipped with monochromators (Molecular Devices, Sunnyvale, CA). […]

rat GIP receptor = test: FRET cAMP assay in HEK293 cells stably expressing GIP receptor, transduced with H188; assay type: cell-based; settings: GIP 3 nM
Procedure: as §1

rat glucagon receptor = test: FRET cAMP assay in HEK293 cells stably expressing glucagon receptor, transduced with H188; assay type: cell-based; settings: Glucagon 3 nM
Procedure: as §1

Question: Which “Effect on the cAMP-elevating action of GLP-1” value (human GLP-1R) does the source give for `CC(C)Cn1c(=O)n(C)c(=O)c2[nH]cnc21` [IBMX, isobutylmethylxanthine] here?
Answer: potentiated the action of GLP-1

Question: What about the “Effect on levels of cAMP in HEK293-sAC cells” value ([1]; IBMX 50 μM, H188 by viral transduction) of the same compound?
Answer: raised levels of cAMP

Question: And the “Effect on levels of cAMP in wild-type HEK293 cells” value (wild-type HEK293 cells)?
Answer: failed to raise levels of cAMP

Question: For `Nc1nc(Cl)cc(N(Cc2ccsc2)C2CC2)n1` [LRE1], which “Effect on IBMX-induced rise of cAMP in HEK293-sAC cells” value ([1]; LRE1 50 μM versus IBMX 50 μM) is on record?
Answer: blocked

Question: How did the “Effect on the cAMP-elevating action of GLP-1” value (human GLP-1R) turn out when `Cl.c1ccc(C2CCCC2NC2=NCCCCCCCCCCC2)cc1` (stereo not shown) [MDL-12,330 A] was run?
Answer: suppressed the action of GLP-1

Question: How did the “Effect on baseline FRET ratio when administered alone” value [2] turn out when `CC(=O)Oc1ccc(CSP2(=O)OC[C@H]3O[C@@H](n4c(Br)nc5c(N)ncnc54)[C@H](O)[C@@H]3O2)cc1` (stereo partly shown) [Rp-8-Br-cAMPS-pAB] was run?
Answer: weak partial agonist effect

Question: What about the “Effect on ΔFRET measured in response to forskolin” value [2] of the same compound?
Answer: inhibited the ΔFRET

Question: How did the EC50 [3] turn out when `C=C[C@@]1(C)CC(=O)[C@]2(O)[C@@]3(C)[C@@H](O)CCC(C)(C)[C@@H]3[C@H](O)[C@H](OC(C)=O)[C@@]2(C)O1` [forskolin] was run?
Answer: 500 nM

Question: With “gastric inhibitory polypeptide (YAEGTFISDYSIAMDKIHQQDFVNWLLAQKGKKNDWKHNITQ) [GIP, hormone]” as the compound, how does the “Effect on cAMP at GIP receptor, 3 nM” value (rat GIP receptor) read?
Answer: did raise levels of cAMP

Question: Which “Effect on cAMP at glucagon receptor, 3 nM” value (rat glucagon receptor) does the source give for glucagon here?
Answer: did raise levels of cAMP
